Test results from the supplement of paper PMC8671470.
± gives the standard deviation of the averaged measurements.

Tested on: HL-60
Assay: cell viability (% survival relative to DMSO control); higher = less cytotoxic
Conditions: 72 h
Procedure, shortened: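 A rescreen of the full library used HL-60 cells in RPMI 1640 with 10% FBS on 384-well plates, run in duplicate at five tenfold concentrations (1–10,000 nM). Each screen included DMSO or 100 nM of one of three metabolic inhibitors and ran 72 h at 37 °C, 5% CO2. CellTiter-Glo viability was scaled between DMSO and 10 μM proteasome-inhibitor wells. Any area under the curve comes from four-parameter log-logistic fits with drc and PharmacoGx.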

[1] = 0.001 µM, co-treatment: AZD3965 100 nM
[2] = 0.001 µM, co-treatment: DMSO vehicle
[3] = 0.001 µM, co-treatment: GSK2194069 100 nM
[4] = 0.001 µM, co-treatment: pictilisib 100 nM
[5] = 0.01 µM, co-treatment: AZD3965 100 nM
[6] = 0.01 µM, co-treatment: DMSO vehicle
[7] = 0.01 µM, co-treatment: GSK2194069 100 nM
[8] = 0.01 µM, co-treatment: pictilisib 100 nM
[9] = 0.1 µM, co-treatment: AZD3965 100 nM
[10] = 0.1 µM, co-treatment: DMSO vehicle
[11] = 0.1 µM, co-treatment: GSK2194069 100 nM
[12] = 0.1 µM, co-treatment: pictilisib 100 nM
[13] = 1 µM, co-treatment: AZD3965 100 nM
[14] = 1 µM, co-treatment: DMSO vehicle
[15] = 1 µM, co-treatment: GSK2194069 100 nM
[16] = 1 µM, co-treatment: pictilisib 100 nM
[17] = 10 µM, co-treatment: AZD3965 100 nM
[18] = 10 µM, co-treatment: DMSO vehicle
[19] = 10 µM, co-treatment: GSK2194069 100 nM
[20] = 10 µM, co-treatment: pictilisib 100 nM

| SMILES | cell viability [1] [%] | cell viability [2] [%] | cell viability [3] [%] | cell viability [4] [%] | cell viability [5] [%] | cell viability [6] [%] | cell viability [7] [%] | cell viability [8] [%] | cell viability [9] [%] | cell viability [10] [%] | cell viability [11] [%] | cell viability [12] [%] | cell viability [13] [%] | cell viability [14] [%] | cell viability [15] [%] | cell viability [16] [%] | cell viability [17] [%] | cell viability [18] [%] | cell viability [19] [%] | cell viability [20] [%] |
| --- | --- | --- | --- | --- | --- | --- | --- | --- | --- | --- | --- | --- | --- | --- | --- | --- | --- | --- | --- | --- |
| NC(=O)c1ncn([C@@H]2O[C@H](CO)[C@@H](O)[C@H]2O)n1 [Ribavirin] | 100 ± 3.5 | 100.3 ± 0.67 | 92.1 ± 6.2 | 105 ± 7.1 | 100 ± 4.4 | 102 ± 1.6 | 76.6 ± 27 | 106 ± 5 | 99.2 ± 3.9 | 102 ± 3 | 94.1 ± 5.5 | 101 ± 3 | 99.8 ± 4.1 | 97.1 ± 3.6 | 90.1 ± 14 | 107 ± 3.6 | 106 ± 2.2 | 104 ± 4.4 | 90.4 ± 12 | 104 ± 3.7 |
| Oc1cc(Cl)ccc1Oc1ccc(Cl)cc1Cl [Triclosan] | 100 ± 3.6 | 101 ± 2.6 | 102 ± 4.7 | 93.3 ± 13 | 104 ± 5.1 | 98.7 ± 7.6 | 107 ± 9.5 | 120 ± 9.4 | 96.5 ± 1.2 | 99.7 ± 1.2 | 95.3 ± 5.2 | 95.7 ± 12 | 94.9 ± 7.2 | 99.6 ± 1.5 | 105 ± 4.4 | 111 ± 3.4 | 103 ± 3.2 | 111 ± 4 | 99.7 ± 2.5 | 107.6 ± 0.22 |
| O=C1Oc2ccccc2C(=O)C1CC1C(=O)Oc2ccccc2C1=O (stereo not given) [Dicumarol] | 101 ± 6 | 104 ± 3.1 | 122 ± 4.6 | 103 ± 4.7 | 73.3 ± 30 | 102 ± 6.2 | 62.5 ± 23 | 91 ± 15 | 100 ± 3.5 | 100 ± 1.2 | 95.5 ± 1.2 | 103 ± 9 | 101 ± 5.3 | 100 ± 8.3 | 98.8 ± 5.7 | 102 ± 11 | 97.7 ± 4 | 99.1 ± 4.8 | 85 ± 7 | 92.1 ± 5 |
| CC(C)Cc1sc(N)nc1-c1ccc(P(=O)(O)O)o1 | 105 ± 4.8 | 101 ± 7.6 | 108 ± 9.1 | 97.8 ± 1.5 | 99.1 ± 8.8 | 100.4 ± 0.35 | 96.7 ± 7.1 | 89.8 ± 15 | 99.2 ± 21 | 105 ± 7.3 | 103 ± 8.6 | 109 ± 9.9 | 102 ± 3.8 | 104 ± 1.7 | 105 ± 3 | 98.8 ± 7.3 | 101 ± 1.6 | 99.2 ± 4.2 | 100 ± 3.6 | 105 ± 9.4 |
| CN(C)c1nc(O)c2[nH]cnc2n1 [2-Dimethylamino-6-hydroxypurine] | 98.9 ± 2.2 | 99.5 ± 1.3 | 98.8 ± 1.3 | 101 ± 8 | 97.93 ± 0.42 | 103 ± 8.9 | 110 ± 20 | 105 ± 3 | 100 ± 2.5 | 96.5 ± 1.1 | 92.4 ± 1.2 | 102.5 ± 0.56 | 97.6 ± 3 | 88.1 ± 12 | 104 ± 12 | 114 ± 16 | 101.2 ± 0.26 | 102 ± 4.7 | 108 ± 16 | 99 ± 9.8 |
| COc1c(C)c2c(c(O)c1C/C=C(\C)CCC(=O)O)C(=O)OC2 [Mycophenolic acid] | 96.8 ± 3.9 | 72.1 ± 34 | 85.6 ± 16 | 91.1 ± 12 | 89.8 ± 13 | 96.4 ± 5.6 | 86.3 ± 18 | 92.87 ± 0.34 | 99 ± 6.1 | 95.9 ± 2.7 | 94.33 ± 0.34 | 99.1 ± 7.1 | 113.3 ± 0.98 | 106.1 ± 0.96 | 103 ± 7.8 | 98.72 ± 0.17 | 31.9 ± 4.8 | 56.2 ± 3.4 | 55.8 ± 1.6 | 55.7 ± 1.7 |
| O=C(O)C(Cl)Cl [Dichloroacetate] | 96.1 ± 3.5 | 96.5 ± 1.4 | 98.6 ± 9.5 | 89.5 ± 5.3 | 105 ± 4.1 | 104 ± 6.4 | 104 ± 2 | 100 ± 12 | 104 ± 4 | 102 ± 2.5 | 96.3 ± 9.7 | 91 ± 4 | 101 ± 2.4 | 101 ± 2.9 | 98.3 ± 5.9 | 99.9 ± 2.8 | 101 ± 1.1 | 100.4 ± 0.25 | 102.8 ± 0.97 | 97 ± 5.1 |
| O=C(O)c1cc2sccc2[nH]1 [4H-thieno[3,2-b]pyrrole-5-carboxylic acid] | 96.3 ± 5.8 | 101.92 ± 0.033 | 99.1 ± 7.8 | 109 ± 14 | 101 ± 5.4 | 101 ± 2.9 | 100.5 ± 0.55 | 94.5 ± 6.3 | 94.6 ± 11 | 103 ± 7.1 | 101.3 ± 0.73 | 97.3 ± 4.2 | 76.4 ± 8.7 | 97.47 ± 0.64 | 90.2 ± 1.1 | 84.3 ± 7.3 | 104 ± 11 | 104 ± 3.8 | 100 ± 9.4 | 99.3 ± 9.8 |
| CCOc1ccc(Cc2cc([C@@H]3O[C@H](CO)[C@@H](O)[C@H](O)[C@H]3O)ccc2Cl)cc1 [Dapagliflozin] | 100.2 ± 0.34 | 105 ± 2.9 | 100.95 ± 0.06 | 99.1 ± 5.3 | 97.7 ± 4.2 | 101.3 ± 0.77 | 102 ± 1.1 | 103 ± 1.6 | 99.5 ± 0.33 | 100 ± 3.5 | 100 ± 4.8 | 101.6 ± 0.16 | 103.3 ± 0.55 | 99.6 ± 1.8 | 96 ± 1.6 | 104 ± 5.3 | 104 ± 2 | 103 ± 3.6 | 102 ± 4.6 | 100 ± 6.2 |
| CCN(CC)CCN(Cc1ccc(-c2ccc(C(F)(F)F)cc2)cc1)C(=O)Cn1c(SCc2ccc(F)cc2)nc(=O)c2c1CCC2 [Darapladib] | 96.2 ± 14 | 103.1 ± 0.25 | 98.7 ± 14 | 85.9 ± 27 | 100 ± 3.4 | 99.55 ± 0.55 | 97.8 ± 1.3 | 97.2 ± 7 | 104 ± 1.6 | 101 ± 6.2 | 99.8 ± 1.8 | 102 ± 4.5 | 93.7 ± 2.3 | 96.27 ± 0.22 | 84.4 ± 10 | 97.3 ± 7.4 | -1.351 ± 0.0054 | -2.41 ± 0.42 | -2.4 ± 0.029 | -2.26 ± 0.088 |
| Nc1ncnc2c1ncn2[C@@H]1O[C@H](CSCC[C@H](N)C(=O)O)[C@@H](O)[C@H]1O [S-Adenosyl Homocysteine] | 103 ± 18 | 97.1 ± 11 | 91.8 ± 36 | 108 ± 33 | 85.2 ± 20 | 93.3 ± 4.4 | 86.7 ± 12 | 78.6 ± 4.6 | 101 ± 3.4 | 98.6 ± 3.3 | 103 ± 8.4 | 102 ± 5.2 | 97.2 ± 3.1 | 98.5 ± 2.5 | 99.08 ± 0.63 | 97.8 ± 7 | 101.99 ± 0.033 | 99.4 ± 3.9 | 94.5 ± 13 | 98 ± 4.3 |
